Biological target: HIS-TGFβR1 T204D (Homo sapiens (Human), UniProt P36897, T204D)
Assay: HTRF probe-displacement assay, HIS-TGFβR1 T204D
Type: binding
Settings: 1 hour at room temperature

Chain of HIS-TGFβR1 T204D (P36897 34-503 T204D): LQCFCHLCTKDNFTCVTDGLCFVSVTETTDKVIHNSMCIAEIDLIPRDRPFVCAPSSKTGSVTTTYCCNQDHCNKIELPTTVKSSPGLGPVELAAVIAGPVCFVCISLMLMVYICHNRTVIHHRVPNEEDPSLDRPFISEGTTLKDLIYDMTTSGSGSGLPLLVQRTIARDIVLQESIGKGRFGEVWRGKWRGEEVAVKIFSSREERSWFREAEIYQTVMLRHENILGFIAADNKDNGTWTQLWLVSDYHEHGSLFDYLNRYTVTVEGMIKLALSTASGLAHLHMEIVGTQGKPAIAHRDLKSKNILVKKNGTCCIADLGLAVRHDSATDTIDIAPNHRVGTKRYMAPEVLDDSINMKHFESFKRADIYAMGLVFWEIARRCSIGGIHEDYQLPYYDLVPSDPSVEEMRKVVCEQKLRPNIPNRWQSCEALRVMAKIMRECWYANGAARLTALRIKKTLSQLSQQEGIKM

Row | Compound | IC50 [nM]
1 | Cc1cccc(-c2nc(Nc3ccncc3C(=O)NCC(C)(C)O)c3cccn3n2)n1 [Example 156, N-(2-hydroxy-2-methylpropyl)-4-{[2-(6-methylpyridin-2-yl)pyrrolo[2,1-f][1,2,4]triazin-4-yl]amino}pyridine-3-carboxamide] | 50
2 | COc1nccc(-c2nc(Nc3ccncc3F)c3cccn3n2)n1 [Example 101, 3-fluoro-N-[2-(2-methoxypyrimidin-4-yl)pyrrolo[2,1-f][1,2,4]triazin-4-yl]pyridin-4-amine] | 530
3 | Cc1nc(-c2nc(Nc3ccncc3C(=O)NCCN3CCCCC3)c3cccn3n2)ccc1F [Example 141, 4-{[2-(5-fluoro-6-methylpyridin-2-yl)pyrrolo[2,1-f][1,2,4]triazin-4-yl]amino}-N-[2-(piperidin-1-yl)ethyl]pyridine-3-carboxamide] | 5
4 | Fc1cnccc1Nc1nc(-c2ccc[nH]2)nn2cccc12 [Example 89, 3-fluoro-N-[2-(1H-pyrrol-2-yl)pyrrolo[2,1-f][1,2,4]triazin-4-yl]pyridin-4-amine] | 190
5 | CC(=O)Nc1cc(Nc2nc(-c3cccc(C(F)F)n3)nn3cccc23)ccn1 [Example 13, N-[4-({2-[6-(difluoromethyl)pyridin-2-yl]pyrrolo[2,1-f][1,2,4]triazin-4-yl}amino)pyridin-2-yl]acetamide] | 0.19
6 | CC(=O)Nc1cc(Nc2nc(-c3ccc(F)cn3)nn3cccc23)ccn1 [Example 227, N-(4-{[2-(5-fluoropyridin-2-yl)pyrrolo[2,1-f][1,2,4]triazin-4-yl]amino}pyridin-2-yl)acetamide] | 3.6
7 | CC(=O)N1CCN(CC(=O)Nc2cc(Nc3nc(-c4cccc(C(F)(F)F)n4)nn4cccc34)ccn2)CC1 [Example 320, 2-(4-acetylpiperazin-1-yl)-N-[4-({2-[6-(trifluoromethyl)pyridin-2-yl]pyrrolo[2,1-f][1,2,4]triazin-4-yl}amino)pyridin-2-yl]acetamide] | 0.85
8 | CN1CCN(CCCNCc2ccn3nc(-c4ccccn4)nc(Nc4ccncc4F)c23)CC1 [Example 283, 3-fluoro-N-[5-({[3-(4-methylpiperazin-1-yl)propyl]amino}methyl)-2-(pyridin-2-yl)pyrrolo[2,1-f][1,2,4]triazin-4-yl]pyridin-4-amine] | 12
9 | CC(C)(NCc1ccn2nc(-c3ccccn3)nc(Nc3ccncc3F)c12)c1ccccn1 [Example 301, 3-fluoro-N-[2-(pyridin-2-yl)-5-({[2-(pyridin-2-yl)propan-2-yl]amino}methyl)pyrrolo[2,1-f][1,2,4]triazin-4-yl]pyridin-4-amine] | 0.58
10 | Fc1cnccc1Nc1nc(-c2cccc(C(F)F)n2)nn2cccc12 [Example 78, N-{2-[6-(difluoromethyl)pyridin-2-yl]pyrrolo[2,1-f][1,2,4]triazin-4-yl}-3-fluoropyridin-4-amine] | 0.92
11 | COc1cccc(-c2nc(Nc3ccncc3F)c3c(C(C)(C)O)ccn3n2)n1 [Example 48, 2-{4-[(3-fluoropyridin-4-yl)amino]-2-(6-methoxypyridin-2-yl)pyrrolo[2,1-f][1,2,4]triazin-5-yl}propan-2-ol] | 32
12 | Fc1cnccc1Nc1nc(-c2ccccn2)nn2ccc(CNCC3CNC3)c12 [Example 266, N-(5-{[(azetidin-3-ylmethyl)amino]methyl}-2-(pyridin-2-yl)pyrrolo[2,1-f][1,2,4]triazin-4-yl)-3-fluoropyridin-4-amine] | 10
13 | FC(F)(F)c1cccc(-c2nc(Nc3ccnc(-c4cc[nH]n4)c3)c3cccn3n2)n1 [Example 230, 2-(1H-pyrazol-3-yl)-N-{2-[6-(trifluoromethyl)pyridin-2-yl]pyrrolo[2,1-f][1,2,4]triazin-4-yl}pyridin-4-amine] | 100
14 | O[C@@H](CNCc1ccn2nc(-c3ccccn3)nc(Nc3ccncc3F)c12)c1ccccc1 [Example 310, (1R)-2-[({4-[(3-fluoropyridin-4-yl)amino]-2-(pyridin-2-yl)pyrrolo[2,1-f][1,2,4]triazin-5-yl}methyl)amino]-1-phenylethan-1-ol] | 4
15 | Fc1cnccc1Nc1nc(-c2ccccn2)nn2ccc(CNCC3CCCCN3)c12 (centres unmarked) [Example 265, 3-fluoro-N-(5-{[(piperidin-2-ylmethyl)amino]methyl}-2-(pyridin-2-yl)pyrrolo[2,1-f][1,2,4]triazin-4-yl)pyridin-4-amine] | 6.7
16 | COc1cccc(-c2nc(Nc3ccnc(NCC(C)(C)O)c3)c3c(C)ccn3n2)n1 [Example 138, 1-[(4-{[2-(6-methoxypyridin-2-yl)-5-methylpyrrolo[2,1-f][1,2,4]triazin-4-yl]amino}pyridin-2-yl)amino]-2-methylpropan-2-ol] | 6600
17 | Cc1cccc(-c2nc(Nc3ccncc3F)c3c(CN4CCC(F)(F)CC4)ccn3n2)n1 [Example 76, N-{5-[(4,4-difluoropiperidin-1-yl)methyl]-2-(6-methylpyridin-2-yl)pyrrolo[2,1-f][1,2,4]triazin-4-yl}-3-fluoropyridin-4-amine] | 0.25
18 | CCOCCCNC(=O)c1cnccc1Nc1nc(-c2cccc(C(F)F)n2)nn2cccc12 [Example 172, 4-({2-[6-(difluoromethyl)pyridin-2-yl]pyrrolo[2,1-f][1,2,4]triazin-4-yl}amino)-N-(3-ethoxypropyl)pyridine-3-carboxamide] | 24

Row | Compound | IC50 [nM]
19 | CNC(=O)c1cc2c(Nc3ccncc3)nc(-c3cccc(C)n3)nn2c1 [Example 220, N-methyl-2-(6-methylpyridin-2-yl)-4-[(pyridin-4-yl)amino]pyrrolo[2,1-f][1,2,4]triazine-6-carboxamide] | 11
20 | OC1(CCNCc2ccn3nc(-c4ccccn4)nc(Nc4ccncc4F)c23)CCCC1 [Example 240, 1-{2-[({4-[(3-fluoropyridin-4-yl)amino]-2-(pyridin-2-yl)pyrrolo[2,1-f][1,2,4]triazin-5-yl}methyl)amino]ethyl}cyclopentan-1-ol] | 0.7
21 | CC(C)(O)CNCc1ccn2nc(-c3ccc(F)cn3)nc(Nc3ccncc3F)c12 [Example 235, 1-({[2-(5-fluoropyridin-2-yl)-4-[(3-fluoropyridin-4-yl)amino]pyrrolo[2,1-f][1,2,4]triazin-5-yl]methyl}amino)-2-methylpropan-2-ol] | < 0.25
22 | COc1cccc(-c2nc(Nc3ccnc(NCCC(C)(C)O)c3)c3cccn3n2)n1 [Example 134, 4-[(4-{[2-(6-methoxypyridin-2-yl)pyrrolo[2,1-f][1,2,4]triazin-4-yl]amino}pyridin-2-yl)amino]-2-methylbutan-2-ol] | 360
23 | O=C(c1cnccc1Nc1nc(-c2cccc(C(F)F)n2)nn2cccc12)N1CCC1 [Example 189, 3-(azetidine-1-carbonyl)-N-{2-[6-(difluoromethyl)pyridin-2-yl]pyrrolo[2,1-f][1,2,4]triazin-4-yl}pyridin-4-amine] | 4.3
24 | Fc1cnccc1Nc1nc(-c2ccccn2)nn2ccc(CNCCN3CCCCC3)c12 [Example 284, 3-fluoro-N-[5-({[2-(piperidin-1-yl)ethyl]amino}methyl)-2-(pyridin-2-yl)pyrrolo[2,1-f][1,2,4]triazin-4-yl]pyridin-4-amine] | 4.4
25 | Cc1ccc(F)c(-c2nc(Nc3ccncc3F)c3cccn3n2)n1 [Example 261, 3-fluoro-N-[2-(3-fluoro-6-methylpyridin-2-yl)pyrrolo[2,1-f][1,2,4]triazin-4-yl]pyridin-4-amine] | < 0.76
26 | Fc1ccc(-c2nc(Nc3ccncc3F)c3cccn3n2)nc1 [Example 65, 3-fluoro-N-[2-(5-fluoropyridin-2-yl)pyrrolo[2,1-f][1,2,4]triazin-4-yl]pyridin-4-amine] | 0.79
27 | CN1CCC(OCc2ccn3nc(-c4ccccn4)nc(Nc4ccncc4F)c23)CC1 [Example 328, 3-fluoro-N-(5-{[(1-methylpiperidin-4-yl)oxy]methyl}-2-(pyridin-2-yl)pyrrolo[2,1-f][1,2,4]triazin-4-yl)pyridin-4-amine] | 13
28 | CC(=O)Nc1cc(Nc2nc(-c3ccc(F)c(C(F)F)n3)nn3cccc23)ccn1 [Example 11, N-[4-({2-[6-(difluoromethyl)-5-fluoropyridin-2-yl]pyrrolo[2,1-f][1,2,4]triazin-4-yl}amino)pyridin-2-yl]acetamide] | 6.1
29 | Fc1cccc(-c2nc(Nc3ccncc3Cl)c3cccn3n2)n1 [Example 70, 3-chloro-N-[2-(6-fluoropyridin-2-yl)pyrrolo[2,1-f][1,2,4]triazin-4-yl]pyridin-4-amine] | 0.39
30 | CS(=O)(=O)Nc1cccc(-c2nc(Nc3ccncc3Cl)c3cccn3n2)n1 [Example 90, N-(6-{4-[(3-chloropyridin-4-yl)amino]pyrrolo[2,1-f][1,2,4]triazin-2-yl}pyridin-2-yl)methanesulfonamide] | 8.8
31 | Fc1cnccc1Nc1nc(-c2ccccn2)nn2ccc(CNCCc3ccccn3)c12 [Example 304, 3-fluoro-N-[2-(pyridin-2-yl)-5-({[2-(pyridin-2-yl)ethyl]amino}methyl)pyrrolo[2,1-f][1,2,4]triazin-4-yl]pyridin-4-amine] | 2.5
32 | COc1cccc(-c2nc(Nc3ccncc3F)c3cc(CNCC(C)(C)O)cn3n2)n1 [Example 207, 1-[({4-[(3-fluoropyridin-4-yl)amino]-2-(6-methoxypyridin-2-yl)pyrrolo[2,1-f][1,2,4]triazin-6-yl}methyl)amino]-2-methylpropan-2-ol] | 1700
33 | CS(=O)(=O)N(c1cc2c(Nc3ccncc3F)nc(-c3cccc(C(F)(F)F)n3)nn2c1)S(C)(=O)=O [Example 111, N-{4-[(3-fluoropyridin-4-yl)amino]-2-[6-(trifluoromethyl)pyridin-2-yl]pyrrolo[2,1-f][1,2,4]triazin-6-yl}-N-methanesulfonylmethanesulfonamide] | 52
34 | OCC1(CNCc2ccn3nc(-c4ccccn4)nc(Nc4ccncc4F)c23)COC1 [Example 296, (3-{[({4-[(3-fluoropyridin-4-yl)amino]-2-(pyridin-2-yl)pyrrolo[2,1-f][1,2,4]triazin-5-yl}methyl)amino]methyl}oxetan-3-yl)methanol] | < 0.25
35 | CCc1cc2c(Nc3ccncc3F)nc(-c3cccc(OC)n3)nn2c1 [Example 29, 6-ethyl-N-(3-fluoropyridin-4-yl)-2-(6-methoxypyridin-2-yl)pyrrolo[2,1-f][1,2,4]triazin-4-amine] | 16

From patent publication US10336761B2, “TGFβ receptor antagonist” (BRISTOL-MYERS SQUIBB COMPANY, priority 2015, dated 2019)
